US12168677B2, “Proteins for the treatment of epithelial barrier function disorders” (Genevive, Inc., priority 2017, dated 2024)
“Also recorded” adds a separate entry of the source.

Tests used:
[1] = test system: HCT8 enterocytes and HT29-MTX goblet cells; test: Co-culture trans-epithelial electrical resistance (TEER) assay with heat killed E. coli challenge; assay type: cell-based, human; details: staurosporine 100 nM, negative control
Experimental: Assays were performed as described below in trans-well plates where co-cultures of multiple cell types were performed utilizing a permeable membrane to separate cells. In the apical (top) chamber, human colonic epithelial cells, consisting of a mixture of enterocytes and goblet cells, were cultured until cells obtained tight junction formation and barrier function capacity as assessed by measurement of trans-epithelial electrical resistance (TEER). In the basolateral chamber, monocytes were cultured separately. Epithelial cells were primed with inflammatory cytokines. The assays measured the effect of a therapeutic protein, i.e., SG-15, on epithelial barrier function, wound healing, and production of cytokines. Cell culture. The HCT8 human enterocyte cell line (ATCC Cat. No. CCL-244) was maintained in RPMI-1640 medium supplemented with 10% fetal bovine serum, 100 IU/ml penicillin, 100 μg/ml streptomycin, 10 μg/ml gentamicin and 0.25 μg/ml amphotericin (cRPMI). […] Epithelial cells were trypsinized from culture flasks and viable cells determined by trypan blue counting. […] Trans-epithelial electrical resistance (TEER) readings were measured after the IFN-γ treatment and were used as the pre-treatment TEER values. […]

[2] = test system: HCT8 enterocytes and HT29-MTX goblet cells; test: Epithelial cell wound healing (Oris Cell Migration assay); assay type: cell-based, human; details: SG protein 1 μg/ml, EGF 30 ng/ml, staurosporine 100 nM; 48 hours
From the text: HCT8 enterocytes and HT29-MTX goblet cells were used in wound healing studies. The 96 well Oris Cell Migration assay containing plugs preventing cell attachment in the center of each well was used according to the manufacturer's instructions (Platypus Technologies, Madison, WI). The migration assay plates were warmed to room temperature prior to use and plugs were removed from 100% confluence wells prior to cell addition. The HCT8 enterocyte and HT29-MTX goblet cell lines were used at a 9:1 ratio with a total of 5×10^4 total cells added per well (4.5×10^4 HCT8 cells and 0.5×10^4 HT29-MTX cells). […] Plugs were then removed from all control and sample wells. Control wells included cells treated with the diluent vehicle as the blank, 30 ng/ml epidermal growth factor (EGF) as the positive control, and 100 nM staurosporine as the negative control, all diluted in cRPMI. Sample wells contained SG-15 protein at a concentration of 1 μg/ml diluted in cRPMI. 100% and 0% wells were cultured in cRPMI. […] Prior to staining for viable cells, plugs were removed from the 0% wells. Treatment media was removed and cells were washed in PBS containing 0.9 mM CaCl2) and 0.5 mM MgCl2. […] Samples were normalized between 100% and 0% samples and values expressed as a percent growth.

DSS treated mice [3] = test: DSS model: colon length; assay type: in vivo, C57BL/6 mice; details: 50 nmoles/kg i.p. b.i.d.; 2.5% DSS 6 days
Experimental: Eight-week old C57BL/6 mice were housed 5 animals were cage and given food and water ad libitum for 7 days. Following the 7-day acclimation period, treatments were initiated concurrently with addition of 2.5% DSS to the drinking water. […] The mice were treated with 2.5% dextran sodium sulfate (DSS) in their drinking water for 6 days. Treatments were continued with SG-15 or […]-GLP2 twice a day (b.i.d.) in the morning and evening (every 8 and 16 hr) with i.p. injections at 50 nmoles/kg. Fresh 2.5% DSS drinking water was prepared every 2 days. Colon length was measured in mice included in the DSS model described in Example 1E. […] The graph in FIG. 8 represents data pooled from the 2 individual experiments (n=20).

DSS treated mice [4] = test: DSS model: colon weight to length ratio; assay type: in vivo, C57BL/6 mice; details: Gly2-GLP2 i.p. b.i.d.; 2.5% DSS 6 days
Experimental: Eight-week old C57BL/6 mice were housed 5 animals were cage and given food and water ad libitum for 7 days. Following the 7-day acclimation period, treatments were initiated concurrently with addition of 2.5% DSS to the drinking water. […] The mice were treated with 2.5% dextran sodium sulfate (DSS) in their drinking water for 6 days. Treatments were continued with SG-15 or […]-GLP2 twice a day (b.i.d.) in the morning and evening (every 8 and 16 hr) with i.p. injections at 50 nmoles/kg. Fresh 2.5% DSS drinking water was prepared every 2 days. Colon length and weight were measured in mice included in the DSS model study described in Example 1E. […] Accordingly, the ratio of tissue weight to length can be used as a readout of DSS induced tissue damage. SG-15 administration to DSS treated mice (Example 1E) reduced the colon weight to length ratio elicited by DSS (DSS=3.9 mg/mm, DSS+SG-15=3.5 mg/mm; p=0.13). […] However, no difference was observed between treated with SG-15 as compared to treatment with […]GLP2. The graph in FIG. 9 represents data pooled from the 2 individual experiments (n=20).

[5] = parameters: species or system mice; details: mouse, in vivo, ip

## CN[C@@H]1C[C@H]2O[C@@](C)([C@@H]1OC)n1c3ccccc3c3c4c(c5c6ccccc6n2c5c31)C(=O)NC4 [staurosporine, reference compound]
[1]
  Effect of control compound on TEER: drastic decrease in TEER
[2]
  Wound healing, percent growth: suppressing cell proliferation

## Gly2-GLP2: a stable analog of glucagon-like peptide 2 (GLP2), positive control in DSS model
DSS treated mice [3]
  Colon length / colon shortening elicited by DSS treatment: significant improvement in colon length
  Colon length, Gly2-GLP2 compared with SG protein: significant improvement over SG-16; also recorded: significant improvement over SG-17; also recorded: significant improvement over SG-18
DSS treated mice [4]
  Colon weight to length ratio, effect of positive control in DSS mice: significant reduction in colon weight to length ratio

## epidermal growth factor (NSDSECPLSHDGYCLHDGVCMYIEALDKYACNCVVGYIGERCQYRDLKWWELR; Epidermal growth factor; UniProt P01133 971-1023, looked up) [EGF, positive control in wound healing assay, reference compound]
[2]
  Wound healing, percent growth: increasing proliferation

## fluorescently labeled bovine serum albumin: tracer protein for tracking studies following intraperitoneal injection
[5]
  Time at which protein reached the colon after i.p. delivery: 6 h
